Data published in US9844550B2, “Phtalazinone derivatives and manufacturing process thereof” (ILDONG PHARM CO., LTD., priority 2013, dated 2017).

System: MDA-MB-436 breast cancer cell line
Assay: Cell viability assay (MDA-MB-436)
Type: cell-based
Conditions: Homo sapiens, 144 h; MDA-MB-436 cells, treated 6 days
Experimental: 2. Cell Viability Assay (MDA-MB-436)
Cell viability assay was performed by using MDA-MB-436 cell line to measure cytotoxicity of compounds in the present invention. MDA-MB-436 breast cancer cell line was seeded into 96-well plates at 37° C. under 5% CO2 atmosphere using DMEM/F12 (Gibco) containing 10% FBS (Hyclone). After 24 hr incubation, cells were treated with the invented compounds at various concentrations for 6 days. The medium was changed every 3 day. 6 days later, A fluorescence reagent was used to determine the IC50 values.

SMILES | IC50
C#CCN(CC1CN(C(=O)c2cc(Cc3n[nH]c(=O)c4ccccc34)ccc2F)C1)C1CC1 [Compound I-153, 4-(3-(3-((cyclopropyl(prop-2-yn-1-yl)amino)methyl)azetidine-1-carbonyl)-4-fluorobenzyl)phthalazin-1(2H)-one] | 300 to 1000 nM
N#CC1(NC2CN(C(=O)c3cc(Cc4n[nH]c(=O)c5ccccc45)ccc3F)C2)CCCC1 [Compound I-98, 1-((1-(2-fluoro-5-((4-oxo-3,4-dihydrophthalazin-1-yl)methyl)benzoyl)azetidin-3-yl)amino)cyclopentanecarbonitrile] | 300 to 1000 nM
CN(c1ccc(Cl)nn1)[C@H]1CCN(C(=O)c2cc(Cc3n[nH]c(=O)c4ccccc34)ccc2F)C1 [Compound I-111, (S)-4-(3-(3-((6-chloropyridazin-3-yl)(methyl)amino)pyrrolidine-1-carbonyl)-4-fluorobenzyl)phthalazin-1(2H)-one] | 300 to 1000 nM
CCOC(=O)C1=C(NC2CN(C(=O)c3cc(Cc4n[nH]c(=O)c5ccccc45)ccc3F)C2)CCC1 [Compound I-39, ethyl 2-((1-(2-fluoro-5-((4-oxo-3,4-dihydrophthalazin-1-yl)methyl)benzoyl)azetidin-3-yl)amino)cyclopent-1-enecarboxylate] | 300 to 1000 nM
CC(C)C(C#N)NC1CN(C(=O)c2cc(Cc3n[nH]c(=O)c4ccccc34)ccc2F)C1 (stereo not shown) [Compound I-102, 2-((1-(2-fluoro-5-((4-oxo-3,4-dihydrophthalazin-1-yl)methyl)benzoyl)azetidin-3-yl)amino)-3-methylbutanenitrile] | 300 to 1000 nM
CC(NC1CN(C(=O)c2cc(Cc3n[nH]c(=O)c4ccccc34)ccc2F)C1)C1(C)CC1 (stereo not shown) [Compound I-49, 4-(4-fluoro-3-(3-((1-(1-methylcyclopropyl)ethyl)amino)azetidine-1-carbonyl)benzyl)phthalazin-1(2H)-one] | 5 to 50 nM
O=C(c1cc(Cc2n[nH]c(=O)c3ccccc23)ccc1F)N1CC(NC(C2CC2)C2CC2)C1 [Compound I-45, 4-(3-(3-((dicyclopropylmethyl)amino)azetidine-1-carbonyl)-4-fluorobenzyl)phthalazin-1(2H)-one] | 5 to 50 nM
CC1(C)CCCC1NC1CN(C(=O)c2cc(Cc3n[nH]c(=O)c4ccccc34)ccc2F)C1 (stereo not shown) [Compound I-38, 4-(3-(3-((2,2-dimethylcyclopentyl)amino)azetidine-1-carbonyl)-4-fluorobenzyl)phthalazin-1(2H)-one] | 5 to 50 nM
CN(c1ccc(Cl)nn1)C1CN(C(=O)c2cc(Cc3n[nH]c(=O)c4ccccc34)ccc2F)C1 [Compound I-115, 4-(3-(3-((6-chloropyridazin-3-yl)(methyl)amino)azetidine-1-carbonyl)-4-fluorobenzyl)phthalazin-1(2H)-one] | 300 to 1000 nM
N#CC1(CNCC2CN(C(=O)c3cc(Cc4n[nH]c(=O)c5ccccc45)ccc3F)C2)CC1 [Compound I-151, 1-((((1-(2-fluoro-5-((4-oxo-3,4-dihydrophthalazin-1-yl)methyl)benzoyl)azetidin-3-yl)methyl)amino)methyl)cyclopropanecarbonitrile] | 300 to 1000 nM
CN1CCN(C2CN(C(=O)c3cc(Cc4n[nH]c(=O)c5ccccc45)ccc3F)C2)CC1 [Compound I-78, 4-(4-fluoro-3-(3-(4-methylpiperazin-1-yl)azetidine-1-carbonyl)benzyl)phthalazin-1(2H)-one] | 300 to 1000 nM
O=C(c1cc(Cc2n[nH]c(=O)c3ccccc23)ccc1F)N1CC(N2CCC(F)CC2)C1 [Compound I-74, 4-(4-fluoro-3-(3-(4-fluoropiperidin-1-yl)azetidine-1-carbonyl)benzyl)phthalazin-1(2H)-one] | 5 to 50 nM
COCC1(NC2CN(C(=O)c3cc(Cc4n[nH]c(=O)c5ccccc45)ccc3F)C2)CC1 [Compound I-90, 4-(4-fluoro-3-(3-((1-(methoxymethyl)cyclopropyl)amino)azetidine-1-carbonyl)benzyl)phthalazin-1(2H)-one] | 50 to 300 nM
O=C(c1cc(Cc2n[nH]c(=O)c3ccccc23)ccc1F)N1CC(N(CC2CC2)CC2CC2)C1 [Compound I-34, 4-(3-(3-(bis(cyclopropylmethyl)amino)azetidine-1-carbonyl)-4-fluorobenzyl)phthalazin-1(2H)-one] | 300 to 1000 nM
O=C(c1cc(Cc2n[nH]c(=O)c3ccccc23)ccc1F)N1CC(NC2(C(F)(F)F)CCC2)C1 [Compound I-104, 4-(4-fluoro-3-(3-((1-(trifluoromethyl)cyclobutyl)amino)azetidine-1-carbonyl)benzyl)phthalazin-1(2H)-one] | 300 to 1000 nM
O=C(c1cc(Cc2n[nH]c(=O)c3ccccc23)ccc1F)N1CC[C@H](Nc2ccc(Cl)nn2)C1 [Compound I-112, (S)-4-(3-(3-((6-chloropyridazin-3-yl)amino)pyrrolidine-1-carbonyl)-4-fluorobenzyl)phthalazin-1(2H)-one] | 300 to 1000 nM
CC(CNC1CN(C(=O)c2cc(Cc3n[nH]c(=O)c4ccccc34)ccc2F)C1)C(F)(F)F (stereo not shown) [Compound I-50, 4-(4-fluoro-3-(3-((3,3,3-trifluoro-2-methylpropyl)amino)azetidine-1-carbonyl)benzyl)phthalazin-1(2H)-one] | 50 to 300 nM
C[C@@H](NC1CN(C(=O)c2cc(Cc3n[nH]c(=O)c4ccccc34)ccc2F)C1)C(C)(C)C [Compound I-86, (R)-4-(3-(3-((3,3-dimethylbutan-2-yl)amino)azetidine-1-carbonyl)-4-fluorobenzyl)phthalazin-1(2H)-one] | 5 to 50 nM

Other lines, results leading:

IC50 | SMILES
≤ 5 nM | CC1(NC2CN(C(=O)c3cc(Cc4n[nH]c(=O)c5ccccc45)ccc3F)C2)CC1 [Compound I-85, 4-(4-fluoro-3-(3-((1-methylcyclopropyl)amino)azetidine-1-carbonyl)benzyl)phthalazin-1(2H)-one]
50 to 300 nM | CN(Cc1cccnc1)C1CN(C(=O)c2cc(Cc3n[nH]c(=O)c4ccccc34)ccc2F)C1 [Compound I-66, 4-(4-fluoro-3-(3-(methyl(pyridin-3-ylmethyl)amino)azetidine-1-carbonyl)benzyl)phthalazin-1(2H)-one]
300 to 1000 nM | O=C(c1cc(Cc2n[nH]c(=O)c3ccccc23)ccc1F)N1CC[C@H](Nc2ncccn2)C1 [Compound I-110, (S)-4-(4-fluoro-3-(3-(pyrimidin-2-ylamino)pyrrolidine-1-carbonyl)benzyl)phthalazin-1(2H)-one]
300 to 1000 nM | N#CC1(CNC2CN(C(=O)c3cc(Cc4n[nH]c(=O)c5ccccc45)ccc3F)C2)CC1 [Compound I-94, 1-(((1-(2-fluoro-5-((4-oxo-3,4-dihydrophthalazin-1-yl)methyl)benzoyl)azetidin-3-yl)amino)methyl)cyclopropanecarbonitrile]
300 to 1000 nM | CCC(C#N)NC1CN(C(=O)c2cc(Cc3n[nH]c(=O)c4ccccc34)ccc2F)C1 (stereo not shown) [Compound I-101, 2-((1-(2-fluoro-5-((4-oxo-3,4-dihydrophthalazin-1-yl)methyl)benzoyl)azetidin-3-yl)amino)butanenitrile]
≤ 5 nM | CC(C)CCNC1CN(C(=O)c2cc(Cc3n[nH]c(=O)c4ccccc34)ccc2F)C1 [Compound I-52, 4-(4-fluoro-3-(3-(isopentylamino)azetidine-1-carbonyl)benzyl)phthalazin-1(2H)-one]
5 to 50 nM | C=CCNC1CN(C(=O)c2cc(Cc3n[nH]c(=O)c4ccccc34)ccc2F)C1 [Compound I-51, 4-(3-(3-(allylamino)azetidine-1-carbonyl)-4-fluorobenzyl)phthalazin-1(2H)-one]
300 to 1000 nM | N#CC(NC1CN(C(=O)c2cc(Cc3n[nH]c(=O)c4ccccc34)ccc2F)C1)C1CC1 (stereo not shown) [Compound I-103, 2-cyclopropyl-2-((1-(2-fluoro-5-((4-oxo-3,4-dihydrophthalazin-1-yl)methyl)benzoyl)azetidin-3-yl)amino)acetonitrile]
50 to 300 nM | O=C(c1cc(Cc2n[nH]c(=O)c3ccccc23)ccc1F)N1CC(NCC(F)(F)F)C1 [Compound I-95, 4-(4-fluoro-3-(3-((2,2,2-trifluoroethyl)amino)azetidine-1-carbonyl)benzyl)phthalazin-1(2H)-one]
50 to 300 nM | O=C(c1cc(Cc2n[nH]c(=O)c3ccccc23)ccc1F)N1CC(NC2(CO)CC2)C1 [Compound I-84, 4-(4-fluoro-3-(3-((1-(hydroxymethyl)cyclopropyl)amino)azetidine-1-carbonyl)benzyl)phthalazin-1(2H)-one]
50 to 300 nM | O=C(c1cc(Cc2n[nH]c(=O)c3ccccc23)ccc1F)N1CC(Nc2ccccc2)C1 [Compound I-79, 4-(4-fluoro-3-(3-(phenylamino)azetidine-1-carbonyl)benzyl)phthalazin-1(2H)-one]
5 to 50 nM | CCCNC1CN(C(=O)c2cc(Cc3n[nH]c(=O)c4ccccc34)ccc2F)C1 [Compound I-59, 4-(4-fluoro-3-(3-(propylamino)azetidine-1-carbonyl)benzyl)phthalazin-1(2H)-one]
5 to 50 nM | O=C(c1cc(Cc2n[nH]c(=O)c3ccccc23)ccc1F)N1CC[C@@H](Nc2ccccn2)C1 [Compound I-128, (R)-4-(4-fluoro-3-(3-(pyridin-2-ylamino)pyrrolidine-1-carbonyl)benzyl)phthalazin-1(2H)-one]
50 to 300 nM | C#CCCNC1CN(C(=O)c2cc(Cc3n[nH]c(=O)c4ccccc34)ccc2F)C1 [Compound I-91, 4-(3-(3-(but-3-yn-1-ylamino)azetidine-1-carbonyl)-4-fluorobenzyl)phthalazin-1(2H)-one]
5 to 50 nM | CC(C)[C@H](C)NC1CN(C(=O)c2cc(Cc3n[nH]c(=O)c4ccccc34)ccc2F)C1 [Compound I-89, (S)-4-(4-fluoro-3-(3-((3-methylbutan-2-yl)amino)azetidine-1-carbonyl)benzyl)phthalazin-1(2H)-one]
300 to 1000 nM | O=C(c1cc(Cc2n[nH]c(=O)c3ccccc23)ccc1F)N1CC(Nc2ncccn2)C1 [Compound I-109, 4-(4-fluoro-3-(3-(pyrimidin-2-ylamino)azetidine-1-carbonyl)benzyl)phthalazin-1(2H)-one]
